{"source": "patent EP4501920A1", "about": "“NOVEL PYRAZOLE DERIVATIVES” (Aptabio Therapeutics Inc., priority 2022, dated 2023)", "key": {"[1]": {"tested_on": "IL-6", "test": "Expression of IL-6 in pancreatic cancer associated fibroblasts (ELISA)", "type": "cell-based, human", "settings": "P.CAF cells; compounds 10, 20, 30, 40, 60 and 80 µM for 48 hours; FIG. 5", "experimental": "(§1) In order to confirm the effect of the compounds of Synthetic examples of the present invention on inflammation reaction in cancer associated fibroblasts, whether the expression of IL6 and IL8 was inhibited by the compounds of Synthetic examples in pancreatic cancer associated fibroblasts (PCAF) was observed.\n(§2) After inoculating 1.5×10^5 cells in a 6 well plate and then culturing in P.CAF complete media for 48 hours, the compounds of Synthetic examples were treated by 10, 20, 30, 40, 60 and 80 µM for 48 hours according to each condition, and then the expression of IL-6 and IL-8 was confirmed by performing ELISA with Quantkine ELISA kit (R&D systems) as follows.\n(§3) 100 µl of the culture solution in which the compounds of Synthetic examples were treated for 48 hours was added to the microplate strip for analysis including a 100 µl assay diluent and left at a room temperature for 2 hours and then the contents were removed, and then it was washed with 400 µl wash buffer 4 times. 200 µl of a human IL-6 or IL-8 conjugate was added and left at a room temperature for 2 hours and then the contents were removed, and then it was washed with 400 µl wash buffer 4 times. 200 µl of substrate solution was added and left at a room temperature for 20 minutes and then 50 µl of stop solution was added, and the absorbance at a wavelength of 450nm was measured within 30 minutes to confirm the expression level of IL-6 and IL-8."}, "[2]": {"tested_on": "LX-2 (human hepatic stellate cells)", "test": "ROS production induced by PMA in LX-2 cells", "type": "cell-based", "settings": "FIG. 1", "excerpt": "(§4) In order to confirm the effect of the compounds of Synthetic examples on ROS production from fibroblasts and specific substrate cells, ROS production was induced by stimulation of PMA (phorbol 12-myristate 13-acetate), TGF-β1, palmitate or high concentration-glucose, or the like, in HL-60 cells differentiated into neutrophil cells by DMSO treatment, NHLF (normal human lung fibroblast, Lonza), LX-2 (human hepatic stellate cells, Sigma), ARPE19 (human retinal pigment epithelial cell, ATCC), and KEL-FIB (Keloid fibroblast, ATCC) cells, and under this condition, the inhibitory effect of ROS production of the compounds of Synthetic examples was observed.\n(§5) The NHLF (normal human lung fibroblast, Lonza), LX-2 (human hepatic stellate cells, Sigma), ARPE19 (human retinal pigment epithelial cell, ATCC), KEL-FIB (keloid fibroblast, ATCC) cells were suspended in a culture medium containing 10% FBS and aliquoted on a 96 well plate and then cultured under the condition of 5% CO2, 37°C for 24 hours. After pre-treating the compounds of Synthetic examples at a concentration of 10, 20, 30, 40, 60 and 80 µM for 30 minutes to 1 hour, the ROS stimulus was treated to each well containing the cells and drug. After additional culturing for 48 hours, the ROS production level was confirmed using L-012 or DCF-DA."}, "[3]": {"tested_on": "NHLF (normal human lung fibroblast)", "test": "ROS production induced by PMA in NHLF cells", "type": "cell-based", "settings": "FIG. 1", "excerpt": "as §4, §5"}, "[4]": {"tested_on": "αSMA", "test": "Expression of αSMA induced by TGF-β1 (immunocytochemistry)", "type": "cell-based, human", "settings": "TGF-β1 (10 ng/ml), 10 µM, FIG. 4", "excerpt": "In order to confirm whether the compounds of Synthetic examples of the present invention affect differentiation of fibroblasts into myofibroblasts, the inhibitory effect of the compounds of Synthetic examples on increase in expression of αSMA (biomarker for confirming differentiation into myofibroblasts) induced by TGF-β1 on HFF-1 (human foreskin fibroblast, ATCC), NHLF (normal human lung fibroblast, Lonza), LX-2 (human hepatic stellate cells, Sigma), ARPE19 (human retinal pigment epithelial cell, ATCC), and KEL-FIB (Keloid fibroblast, ATCC) cells was to be observed.\nEach cell was suspended in a DMEM medium containing 10% FBS and aliquoted at a concentration of 1×10^4 to 1.5 × 10 ^5 cells/well in a 4-well chamber slide (Nunc) and the compounds of Synthetic examples and TGF-β1 (both TGF β1 and TGF-β have the same meaning) were treated to prepare cells to be used for confirming αSMA expression. The confirmation of αSMA expression in the prepared cells was performed by immunocytochemistry as follows. For the cells, fixation with 4% paraformaldehyde for 10 minutes and permeabilization using 0.1% Triton x-100 were performed, and then processes of treating the primary antibody (anti-αSMA Ab, 1:200, at 4°C for 16 hours) and secondary antibody (Alexa-594 conjugated Ab, 1:800, at a room temperature for 1 hour) against αSMA were progressed in order, and then the expression level of αSMA was observed using a fluorescence microscope.\nFIG. 3 observes the effect of treating various compounds of Synthetic examples by 10, 20 and 40 µM, after inducing αSMA expression by treatment of TGF-β1(10 ng/ml) into HFF cells."}, "[5]": {"tested_on": "IL-1β", "test": "Expression of IL-1β induced by LPS in human-derived fibroblasts (RT-PCR)", "type": "cell-based", "settings": "LPS (1 µg/ml) 6 hours; 10 µM; FIG. 8 (LX2, NHLF, ARPE19 and KEL-Fib cells)", "experimental": "After inoculating 2×10^5 cells in a 6 well plate and then culturing for 24 hours, they were further cultured in a serum-free culture solution for 16 hours and then the Synthetic example 1 Compound was pre-treated for 20 minutes according to each condition and inflammation reaction was induced with LPS (1 µg/ml) for 6 hours. The expression of IL-1β was confirmed using RT-PCR. Total RNA was separated from the cells using RNeasy mini kit (Qiagen), and for the separated RNA 2ug, cDNA was synthesized using PrimeScript™ II 1st strand cDNA synthesis kit (TaKaRa) and then PCR was performed with AccuPower® PCR PreMix (Bioneer) to amplify genes. The nucleotide sequences for target primers are as follows. IL-1β (forward: 5'-[…]-3'(SEQ ID NO: 1), reverse: 5'-[…]-3'(SEQ ID NO: 2)); GAPDH (forward: 5'-[…]-3'(SEQ ID NO: 3), reverse: 5'-[…]-3'(SEQ ID NO: 4)); β-actin (forward: 5'-[…]-3'(SEQ ID NO: 5), reverse: 5'-[…]-3'(SEQ ID NO: 6)). The PCR product was confirmed by electrophoresis in 1.5% agarose gel."}, "[6]": {"tested_on": "human foreskin fibroblasts (HFF-1, ATCC)", "test": "Collagen gel contraction induced by TGF-β1", "type": "cell-based", "settings": "HFF-1 cells and bovine type I collagen; TGF-β1 (10 ng/ml); 72 hours; FIG. 7", "excerpt": "In order to confirm the effect of the compounds of Synthetic examples on differentiation of fibroblasts into myofibroblasts, the inhibitory effect of the compounds of Synthetic examples on the phenomenon of contraction of gel induced by interaction of human foreskin fibroblasts (HFF-1, ATCC) and collagen was observed.\nThe mixed solution of the HFF-1 cells and collagen (bovine type I collagen) prepared at a concentration of 3×10^6 cells/ml was aliquoted in a 24 well plate, respectively, and then cultured under the condition of 5% CO2, 37 °C for 1 hour to induce gel polymerization. Then, after suspending the gel attached on the plate from the plate using a spoon, a medium comprising TGF-β1 and Synthetic example compounds was added to each well. After culturing for 72 hours, the Synthetic example compounds were treated by 10, 20, 30, 40, 60 and 80 µM to measure the size of the gel, and thereby, the degree of contraction of the gel by drug treatment was confirmed."}, "[7]": {"tested_on": "IL-8", "test": "Expression of IL-8 in pancreatic cancer associated fibroblasts (ELISA)", "type": "cell-based, human", "settings": "P.CAF cells; compounds 10, 20, 30, 40, 60 and 80 µM for 48 hours; FIG. 6", "experimental": "as §1, §2, §3"}}}
{"smiles": "CN(Cc1ccccc1)C1CCc2nn(-c3ccccn3)c(O)c2C1", "note": "(stereo not shown) [Compound 1, 5-(Benzylmethylamino)-2-(pyridin-2-yl)-4,5,6,7-tetrahydro-2H-indazol-3-ol]", "values": [{"measurement": "IL-6 expressed in P.CAF", "setting": "[1]", "value": "effectively inhibited"}, {"measurement": "ROS production induced by PMA", "setting": "[2]", "value": "inhibited"}, {"measurement": "ROS production induced by PMA", "setting": "[3]", "value": "inhibited"}, {"measurement": "increase in expression of αSMA induced by TGF-β1", "setting": "[4]; ARPE19 cells", "value": "significantly inhibited"}, {"measurement": "increase in expression of αSMA induced by TGF-β1", "setting": "[4]; KEL-FIB cells", "value": "significantly inhibited"}, {"measurement": "increase in expression of αSMA induced by TGF-β1", "setting": "[4]; LX-2 cells", "value": "significantly inhibited"}, {"measurement": "increase in expression of αSMA induced by TGF-β1", "setting": "[4]; NHLF cells", "value": "significantly inhibited"}, {"measurement": "IL-1β induced by LPS", "setting": "[5]", "value": "effectively inhibited in a concentration-dependent manner"}, {"measurement": "contraction of the gel induced by TGF-β1", "setting": "[6]", "value": "effectively inhibited"}, {"measurement": "IL-8 expressed in P.CAF", "setting": "[7]", "value": "effectively inhibited"}]}
